# Species on record: Rattus norvegicus
# Assay: Open TG-GATES - Regimen: Single
# Assay type: toxicity, organism-based, Sprague-Dawley
# Design: regimen Single, gender Male, age 6 weeks
# Conditions: in vivo, po, route gavage; for Eos / Fbg / Hb / Ht / Lym / MCH / MCHC / MCV / Mono / Neu / PT / Plat / RBC / Ret / APTT / Bas / WBC: tissue Blood; for KIDNEY_L / KIDNEY_R / KIDNEY_TOTAL: tissue Kidney; for LIVER: tissue Liver; for ALP / ALT / AST / BUN / CRE / Ca / DBIL / GLC / IP / K / LDH / Na / PL / RALB / TBIL / TC / TG / TP / gamma-GTP: tissue Plasma
# [1] = 50 mg/kg, 3 h, dose level Middle
# [2] = 50 mg/kg, 6 h, dose level Middle
# [3] = 50 mg/kg, 9 h, dose level Middle
# [4] = 50 mg/kg, 24 h, dose level Middle
# [5] = 150 mg/kg, 3 h, dose level High
# [6] = 150 mg/kg, 6 h, dose level High
# [7] = 150 mg/kg, 9 h, dose level High
# [8] = 150 mg/kg, 24 h, dose level High
smiles,measurement,setting,value
Oc1ncnc2[nH]ncc12 [ALLOPURINOL],Eos,[1],0.8%
same,Fbg,[1],209.6 mg/dL
same,Hb,[1],14 g/dL
same,Ht,[1],41.6%
same,Lym,[1],80%
same,MCH,[1],21.9 pg
same,MCHC,[1],33.7%
same,MCV,[1],64.9 fL
same,Mono,[1],8.2%
same,Neu,[1],11.2%
same,PT,[1],12.2 s
same,Plat,[1],109.1 x10_4/uL
same,RBC,[1],640.4 x10_4/ul
same,Ret,[1],7.8%
same,KIDNEY_L,[1],1 g
same,KIDNEY_R,[1],1.1 g
same,KIDNEY_TOTAL,[1],2.1 g
same,LIVER,[1],9.9 g
same,ALP,[1],877.8 IU/L
same,ALT,[1],30.4 IU/L
same,AST,[1],62.8 IU/L
same,BUN,[1],15.6 mg/dL
same,CRE,[1],0.6 mg/dL
same,Ca,[1],11.2 mg/dL
same,DBIL,[1],0.1 mg/dL
same,GLC,[1],195.4 mg/dL
same,IP,[1],9.9 mg/dL
same,K,[1],4.6 meq/L
same,LDH,[1],90.6 IU/L
same,Na,[1],140 meq/L
same,PL,[1],136.2 mg/dL
same,RALB,[1],3.8 g/dL
same,TBIL,[1],0.4 mg/dL
same,TC,[1],80.4 mg/dL
same,TG,[1],36.6 mg/dL
same,TP,[1],5.6 g/dL
same,gamma-GTP,[1],1 IU/L
same,TERMINAL_BW,[2],208.2 g
same,APTT,[2],16.7 s
same,Bas,[2],0%
same,Eos,[2],0.8%
same,Fbg,[2],218.8 mg/dL
same,Hb,[2],13.6 g/dL
same,Ht,[2],40.6%
same,Lym,[2],69%
same,MCH,[2],21.4 pg
same,MCHC,[2],33.5%
same,MCV,[2],64 fL
same,Mono,[2],9.2%
same,Neu,[2],21.2%
same,PT,[2],12.3 s
same,Plat,[2],98.1 x10_4/uL
same,RBC,[2],634 x10_4/ul
same,Ret,[2],8.1%
same,WBC,[2],122.8 x10_2/uL
same,KIDNEY_L,[2],1.1 g
same,KIDNEY_R,[2],1.2 g
same,KIDNEY_TOTAL,[2],2.2 g
same,LIVER,[2],9.5 g
same,ALP,[2],927.4 IU/L
same,ALT,[2],29.6 IU/L
same,AST,[2],63.6 IU/L
same,BUN,[2],15 mg/dL
same,CRE,[2],0.5 mg/dL
same,Ca,[2],11.6 mg/dL
same,DBIL,[2],0.014 mg/dL
same,GLC,[2],185 mg/dL
same,K,[2],4.8 meq/L
same,LDH,[2],81.2 IU/L
same,Na,[2],140 meq/L
same,PL,[2],130.6 mg/dL
same,RALB,[2],3.7 g/dL
same,TBIL,[2],0.4 mg/dL
same,TC,[2],72.4 mg/dL
same,TG,[2],58.8 mg/dL
same,TP,[2],5.5 g/dL
same,gamma-GTP,[2],1 IU/L
same,TERMINAL_BW,[3],207.1 g
same,APTT,[3],16.8 s
same,Bas,[3],0%
same,Eos,[3],1.2%
same,Fbg,[3],222.6 mg/dL
same,Hb,[3],13.7 g/dL
same,Ht,[3],40.9%
same,Lym,[3],67.2%
same,MCH,[3],22 pg
same,MCHC,[3],33.5%
same,MCV,[3],65.9 fL
same,Mono,[3],4.6%
same,Neu,[3],27.4%
same,PT,[3],12.5 s
same,Plat,[3],108.6 x10_4/uL
same,RBC,[3],622 x10_4/ul
same,Ret,[3],8.9%
same,WBC,[3],86.1 x10_2/uL
same,KIDNEY_L,[3],1 g
same,KIDNEY_R,[3],1 g
same,KIDNEY_TOTAL,[3],2 g
same,LIVER,[3],8.8 g
same,ALP,[3],846.2 IU/L
same,ALT,[3],29.4 IU/L
same,AST,[3],60.2 IU/L
same,BUN,[3],12.2 mg/dL
same,CRE,[3],0.4 mg/dL
same,DBIL,[3],0.044 mg/dL
same,GLC,[3],178.4 mg/dL
same,IP,[3],10.9 mg/dL
same,K,[3],4.6 meq/L
same,LDH,[3],80.8 IU/L
same,Na,[3],139.2 meq/L
same,PL,[3],147 mg/dL
same,RALB,[3],3.6 g/dL
same,TBIL,[3],0.4 mg/dL
same,TC,[3],82.8 mg/dL
same,TG,[3],30.2 mg/dL
same,TP,[3],5.5 g/dL
same,gamma-GTP,[3],1.4 IU/L
same,TERMINAL_BW,[4],219.7 g
same,APTT,[4],16.3 s
same,Bas,[4],0%
same,Eos,[4],1.2%
same,Fbg,[4],229.6 mg/dL
same,Hb,[4],13.6 g/dL
same,Ht,[4],40.6%
same,Lym,[4],81.2%
same,MCH,[4],21.2 pg
same,MCHC,[4],33.4%
same,MCV,[4],63.5 fL
same,Mono,[4],4.8%
same,Neu,[4],13.2%
same,PT,[4],12 s
same,Plat,[4],98.8 x10_4/uL
same,RBC,[4],641 x10_4/ul
same,Ret,[4],6.9%
same,WBC,[4],111.4 x10_2/uL
same,KIDNEY_L,[4],1 g
same,KIDNEY_R,[4],1 g
same,KIDNEY_TOTAL,[4],2 g
same,ALP,[4],1004.2 IU/L
same,ALT,[4],32 IU/L
same,AST,[4],63 IU/L
same,BUN,[4],18.6 mg/dL
same,CRE,[4],0.5 mg/dL
same,Ca,[4],11 mg/dL
same,DBIL,[4],0.022 mg/dL
same,GLC,[4],183.4 mg/dL
same,IP,[4],7.9 mg/dL
same,K,[4],4.9 meq/L
same,LDH,[4],88.4 IU/L
same,Na,[4],139.2 meq/L
same,PL,[4],162.4 mg/dL
same,RALB,[4],3.8 g/dL
same,TBIL,[4],0.3 mg/dL
same,TC,[4],81.4 mg/dL
same,TG,[4],120 mg/dL
same,TP,[4],5.8 g/dL
same,gamma-GTP,[4],1.6 IU/L
same,TERMINAL_BW,[5],210.3 g
same,APTT,[5],16.8 s
same,Bas,[5],0%
same,Eos,[5],0.8%
same,Fbg,[5],220.2 mg/dL
same,Hb,[5],13.9 g/dL
same,Ht,[5],41.3%
same,Lym,[5],75%
same,MCH,[5],21.7 pg
same,MCHC,[5],33.6%
same,MCV,[5],64.6 fL
same,Mono,[5],10%
same,Neu,[5],14%
same,PT,[5],12.4 s
same,Plat,[5],112 x10_4/uL
same,RBC,[5],640.6 x10_4/ul
same,Ret,[5],8.1%
same,WBC,[5],82 x10_2/uL
same,KIDNEY_L,[5],1.1 g
same,KIDNEY_R,[5],1.1 g
same,KIDNEY_TOTAL,[5],2.2 g
same,LIVER,[5],9.9 g
same,ALP,[5],830.8 IU/L
same,ALT,[5],34.6 IU/L
same,AST,[5],63.8 IU/L
same,BUN,[5],13 mg/dL
same,CRE,[5],0.5 mg/dL
same,Ca,[5],11.1 mg/dL
same,DBIL,[5],0.046 mg/dL
same,GLC,[5],191.8 mg/dL
same,K,[5],4.7 meq/L
same,LDH,[5],160.4 IU/L
same,Na,[5],140.2 meq/L
same,PL,[5],129.8 mg/dL
same,RALB,[5],3.8 g/dL
same,TBIL,[5],0.4 mg/dL
same,TC,[5],75.8 mg/dL
same,TG,[5],36.6 mg/dL
same,TP,[5],5.6 g/dL
same,gamma-GTP,[5],1.6 IU/L
same,TERMINAL_BW,[6],208.4 g
same,APTT,[6],16.2 s
same,Bas,[6],0%
same,Eos,[6],0.6%
same,Fbg,[6],227.4 mg/dL
same,Hb,[6],14.1 g/dL
same,Ht,[6],42.2%
same,Lym,[6],64.8%
same,MCH,[6],21.8 pg
same,MCHC,[6],33.5%
same,MCV,[6],65.1 fL
same,Mono,[6],6.6%
same,Neu,[6],28%
same,PT,[6],12.3 s
same,RBC,[6],648.6 x10_4/ul
same,Ret,[6],7.8%
same,WBC,[6],115.3 x10_2/uL
same,KIDNEY_L,[6],1 g
same,KIDNEY_R,[6],1 g
same,KIDNEY_TOTAL,[6],2.1 g
same,LIVER,[6],9.5 g
same,ALP,[6],1127.2 IU/L
same,ALT,[6],29 IU/L
same,AST,[6],61.6 IU/L
same,BUN,[6],16.2 mg/dL
same,CRE,[6],0.5 mg/dL
same,Ca,[6],11.6 mg/dL
same,DBIL,[6],0.016 mg/dL
same,GLC,[6],191.6 mg/dL
same,K,[6],4.9 meq/L
same,LDH,[6],149 IU/L
same,Na,[6],140.8 meq/L
same,PL,[6],134.6 mg/dL
same,RALB,[6],3.9 g/dL
same,TBIL,[6],0.3 mg/dL
same,TC,[6],72 mg/dL
same,TG,[6],47 mg/dL
same,TP,[6],5.7 g/dL
same,gamma-GTP,[6],0.8 IU/L
same,TERMINAL_BW,[7],205 g
same,APTT,[7],16.9 s
same,Bas,[7],0%
same,Eos,[7],0.8%
same,Fbg,[7],230.2 mg/dL
same,Hb,[7],14.1 g/dL
same,Ht,[7],42.1%
same,Lym,[7],65.4%
same,MCH,[7],21.4 pg
same,MCHC,[7],33.6%
same,MCV,[7],63.6 fL
same,Mono,[7],5.4%
same,Neu,[7],28.6%
same,PT,[7],12.3 s
same,Plat,[7],110.4 x10_4/uL
same,RBC,[7],662.2 x10_4/ul
same,Ret,[7],8.1%
same,WBC,[7],82.6 x10_2/uL
same,KIDNEY_L,[7],1.1 g
same,KIDNEY_R,[7],1.1 g
same,KIDNEY_TOTAL,[7],2.2 g
same,LIVER,[7],9 g
same,ALP,[7],832.2 IU/L
same,ALT,[7],26 IU/L
same,AST,[7],62.2 IU/L
same,BUN,[7],18.8 mg/dL
same,CRE,[7],0.5 mg/dL
same,Ca,[7],11.1 mg/dL
same,DBIL,[7],0.028 mg/dL
same,GLC,[7],199.2 mg/dL
same,IP,[7],11.6 mg/dL
same,K,[7],4.7 meq/L
same,LDH,[7],162.2 IU/L
same,Na,[7],140.4 meq/L
same,PL,[7],151 mg/dL
same,RALB,[7],3.9 g/dL
same,TBIL,[7],0.4 mg/dL
same,TC,[7],80 mg/dL
same,TG,[7],53 mg/dL
same,TP,[7],5.9 g/dL
same,gamma-GTP,[7],1.8 IU/L
same,TERMINAL_BW,[8],220.7 g
same,APTT,[8],16.2 s
same,Bas,[8],0%
same,Eos,[8],1.2%
same,Fbg,[8],319.8 mg/dL
same,Hb,[8],13.8 g/dL
same,Ht,[8],41%
same,Lym,[8],70.6%
same,MCH,[8],21.9 pg
same,MCHC,[8],33.6%
same,MCV,[8],65.1 fL
same,Mono,[8],9.8%
same,Neu,[8],18.2%
same,PT,[8],12.1 s
same,Plat,[8],118.1 x10_4/uL
same,RBC,[8],629.4 x10_4/ul
same,Ret,[8],7.5%
same,WBC,[8],99.2 x10_2/uL
same,KIDNEY_L,[8],1.2 g
same,KIDNEY_R,[8],1.3 g
same,KIDNEY_TOTAL,[8],2.5 g
same,ALP,[8],923.6 IU/L
same,ALT,[8],28.4 IU/L
same,AST,[8],61.8 IU/L
same,BUN,[8],24.8 mg/dL
same,CRE,[8],0.6 mg/dL
same,Ca,[8],11.2 mg/dL
same,DBIL,[8],0.048 mg/dL
same,GLC,[8],196 mg/dL
same,IP,[8],9 mg/dL
same,K,[8],4.7 meq/L
same,LDH,[8],157 IU/L
same,Na,[8],139.8 meq/L
same,PL,[8],159.6 mg/dL
same,RALB,[8],3.8 g/dL
same,TBIL,[8],0.3 mg/dL
same,TC,[8],90.6 mg/dL
same,TG,[8],87.2 mg/dL
same,TP,[8],6 g/dL
same,gamma-GTP,[8],2 IU/L
